From the supplement of paper PMC10307832

What was measured:
Experiment in all cases: relative viability (nuclei count vs DMSO), 5 days (fraction); higher = more cells survive
[1] = compound: CC1=C(C=C(C=C1)NC(=O)C2=CC(=CC=C2)C(C)(C)C#N)NC3=CC4=C(C=C3)N=CN(C4=O)C [AZ628] + NC(=O)Nc1cc(-c2cccc(F)c2)sc1C(=O)N[C@H]1CCCNC1 [AZD7762] (partner 0.2 µM)
How it was run: (§1)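 Relative viability divides the nuclei count in treated wells by that in vehicle wells. Lung cancer cell lines were seeded in 1536-well plates, dosed by pin tool the next day, and fixed and stained after 5 days in one step with final 0.05% Triton X-100, 1% formaldehyde and 1 ug/ml Hoechst. Dosing was a single drug or a fixed anchor-drug dose plus five library-drug doses (not always all listed) in √10 steps, and values are medians of duplicate plates imaged at 4×.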

[2] = compound: C1CC2=C(C1)C=C(C=C2)OC3=NC(=C4C(=N3)N(C=N4)CC5=CC=C(C=C5)C6=CC=CC=C6)N[C@@H](CC7=CC=CC=C7)CO [QS11] + COc1cccc2cc(-c3nc([C@H]4CC[C@H](C(=O)O)CC4)n4ncnc(N)c34)[nH]c12 [OSI-027] (partner 0.5 µM)
How it was run: as §1

[3] = compound: CC1=C(C=C(C=C1)NC(=O)C2=CC(=CC=C2)C(C)(C)C#N)NC3=CC4=C(C=C3)N=CN(C4=O)C [AZ628] + CC1(C)CCC(c2ccc(Cl)cc2)=C(CN2CCN(c3ccc(C(=O)NS(=O)(=O)c4ccc(N[C@H](CCN5CCOCC5)CSc5ccccc5)c(S(=O)(=O)C(F)(F)F)c4)cc3)CC2)C1 [Navitoclax] (partner 0.5 µM)
How it was run: as §1

[4] = compound: C1CC2=C(C1)C=C(C=C2)OC3=NC(=C4C(=N3)N(C=N4)CC5=CC=C(C=C5)C6=CC=CC=C6)N[C@@H](CC7=CC=CC=C7)CO [QS11] + Nc1ncn([C@H]2C[C@H](O)[C@@H](CO)O2)c(=O)n1 [Decitabine] (partner 2 µM)
How it was run: as §1

| Cell Line | relative viability ([1]; first compound 0.08 µM) | relative viability ([1]; first compound 0.253 µM) | relative viability ([1]; first compound 0.8 µM) | relative viability ([1]; first compound 2.53 µM) | relative viability ([1]; first compound 8 µM) | relative viability ([2]; first compound 0.08 µM) | relative viability ([2]; first compound 0.253 µM) | relative viability ([2]; first compound 0.8 µM) | relative viability ([2]; first compound 2.53 µM) | relative viability ([2]; first compound 8 µM) | relative viability ([3]; first compound 0.08 µM) | relative viability ([3]; first compound 0.253 µM) | relative viability ([3]; first compound 0.8 µM) | relative viability ([3]; first compound 2.53 µM) | relative viability ([3]; first compound 8 µM) | relative viability ([4]; first compound 0.08 µM) | relative viability ([4]; first compound 0.253 µM) | relative viability ([4]; first compound 0.8 µM) | relative viability ([4]; first compound 2.53 µM) | relative viability ([4]; first compound 8 µM) |
| --- | --- | --- | --- | --- | --- | --- | --- | --- | --- | --- | --- | --- | --- | --- | --- | --- | --- | --- | --- | --- |
| NCI-H2347 | 0.684 | 0.575 | 0.709 | 0.566 | 0.34 | 0.489 | 0.474 | 0.411 | 0.371 | 0.347 | 0.519 | 0.67 | 0.712 | 0.638 | 0.368 | 0.587 | 0.563 | 0.582 | 0.694 | 0.659 |
| NCI-H2405 | 0.54 | 0.387 | 0.498 | 0.419 | 0.458 | 0.626 | 0.663 | 0.64 | 0.654 | 0.694 | 0.49 | 0.64 | 0.53 | 0.415 | 0.575 | 0.793 | 0.714 | 0.706 | 0.906 | 0.843 |
| NCI-H3122 | 0.953 | 0.782 | 0.578 | 0.626 | 0.361 | 1.03 | 1.41 | – | 0.994 | 0.757 | 0.929 | 0.762 | 0.73 | 0.555 | 0.42 | 0.484 | 0.554 | – | 0.487 | 0.556 |
| PC-3 [JPC-3] | 0.929 | 0.754 | 0.808 | 0.83 | 0.727 | 0.794 | 0.743 | 0.371 | 0.718 | 0.739 | 0.835 | 0.782 | 0.875 | 0.814 | 0.817 | – | 0.76 | 0.836 | 0.871 | 0.806 |
| PC-14 | 0.48 | 0.324 | 0.338 | 0.316 | 0.296 | 0.731 | 0.98 | 0.809 | 0.807 | 0.695 | 1.03 | 0.997 | 1.1 | 1.17 | 0.977 | 0.244 | 0.196 | 0.199 | 0.22 | 0.195 |
| RERF-LC-KJ | 0.948 | 0.901 | 1.56 | 1.03 | 0.87 | 0.519 | 0.578 | 0.543 | 0.448 | 0.438 | 1.04 | 0.816 | 0.755 | 0.861 | 0.745 | 0.765 | 0.691 | 0.619 | 0.692 | 0.524 |
